The supplement of paper PMC4862054

Each molecule was assayed on HCC1599 (assay: drug sensitivity score (DSS), CellTox Green (DSS (AUC-based score)); higher = stronger drug effect (viability inhibition or cytotoxicity); extreme values may be limits of the assay). Details: incubation time: 72 h.
How it was run: (§1)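 After 72 h of incubation in 384-well plates with compound at 5 concentrations (10-fold steps, 10,000-fold range set per compound), breast cancer cell lines seeded in 20 µl suspension were read first for CellTox Green fluorescence at 485/520 nm. CellTiter-Glo luminescence was measured next, after 10 min at room temperature. Normalisation on each plate used 0.1 % DMSO and a positive kill control, and the drug sensitivity score was computed from the area under the fitted dose-response curve.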

SMILES | drug sensitivity score
CNC(=O)c1ccccc1Sc1ccc2c(/C=C/c3ccccn3)n[nH]c2c1 [Axitinib] | 0
COc1cc(Nc2c(C#N)cnc3cc(OCCCN4CCN(C)CC4)c(OC)cc23)c(Cl)cc1Cl [Bosutinib] | 0.637
CCN(CC)CCCC(C)Nc1ccnc2cc(Cl)ccc12 (stereo not given) [Chloroquine] | 2.54
CC1(COc2ccc3c(c2)ncn3-c2ccc3cccc(N4CCC(N)CC4)c3n2)COC1 [Crenolanib] | 0
CC(C)(C)c1nc(-c2cccc(NS(=O)(=O)c3c(F)cccc3F)c2F)c(-c2ccnc(N)n2)s1 [Dabrafenib] | 0
Cc1nc(C(=O)NCC(=O)O)c(O)c2ccc(Oc3ccccc3)cc12 [FG-4592] | 0
CC(C)(C)NC(=O)[C@H]1CC[C@H]2[C@@H]3CC[C@H]4NC(=O)C=C[C@]4(C)[C@H]3CC[C@]12C [Finasteride] | 0
Nc1ccn([C@@H]2O[C@H](CO)[C@@H](O)C2(F)F)c(=O)n1 [Gemcitabine] | 0
O=C(O)CNC(=O)c1c(O)c2ccccc2n(Cc2ccccc2)c1=O [IOX-2] | 0
CC(=O)[C@]1(O)Cc2c(O)c3c(c(O)c2[C@@H](O[C@H]2C[C@H](N)[C@H](O)[C@H](C)O2)C1)C(=O)c1ccccc1C3=O [Idarubicin] | 0
C/C(=C\c1csc(C)n1)[C@@H]1C[C@@H]2O[C@]2(C)CCC[C@H](C)[C@H](O)[C@@H](C)C(=O)C(C)(C)[C@@H](O)CC(=O)N1 [Ixabepilone] | 0
C=CCn1c(=O)c2cnc(Nc3ccc(N4CCN(C)CC4)cc3)nc2n1-c1cccc(C(C)(C)O)n1 [MK1775] | 4.9
CN(Cc1cnc2nc(N)nc(N)c2n1)c1ccc(C(=O)N[C@@H](CCC(=O)O)C(=O)O)cc1 [Methotrexate] | 0
CO[C@@]12[C@H](COC(N)=O)C3=C(C(=O)C(C)=C(N)C3=O)N1C[C@@H]1N[C@@H]12 [Mitomycin C] | 0
CCNC(=O)c1noc(-c2cc(C(C)C)c(O)cc2O)c1-c1ccc(CN2CCOCC2)cc1 [NVP-AUY922] | 0
Cc1cn(-c2cc(NC(=O)c3ccc(C)c(Nc4nccc(-c5cccnc5)n4)c3)cc(C(F)(F)F)c2)cn1 [Nilotinib] | 0
CC[C@H](CO)Nc1nc(NCc2ccccc2)c2ncn(C(C)C)c2n1 [Seliciclib] | 0
O=[N+]([O-])c1ccc2c(c1)S(=O)(=O)C=C2 [Stattic] | 0
O=C(CCCCCCC(=O)Nc1ccccc1)NO [Vorinostat] | 0

Each molecule was assayed on BT-549 in the same assay as above. Details: incubation time: 72 h.
How it was run: as §1

SMILES | drug sensitivity score
CNC(=O)c1ccccc1Sc1ccc2c(/C=C/c3ccccn3)n[nH]c2c1 [Axitinib] | 0
COc1cc(Nc2c(C#N)cnc3cc(OCCCN4CCN(C)CC4)c(OC)cc23)c(Cl)cc1Cl [Bosutinib] | 1.47
CCN(CC)CCCC(C)Nc1ccnc2cc(Cl)ccc12 (stereo not given) [Chloroquine] | 1.78
CC1(COc2ccc3c(c2)ncn3-c2ccc3cccc(N4CCC(N)CC4)c3n2)COC1 [Crenolanib] | 4.07
CC(C)(C)c1nc(-c2cccc(NS(=O)(=O)c3c(F)cccc3F)c2F)c(-c2ccnc(N)n2)s1 [Dabrafenib] | 0
Cc1nc(C(=O)NCC(=O)O)c(O)c2ccc(Oc3ccccc3)cc12 [FG-4592] | 0
CC(C)(C)NC(=O)[C@H]1CC[C@H]2[C@@H]3CC[C@H]4NC(=O)C=C[C@]4(C)[C@H]3CC[C@]12C [Finasteride] | 0
Nc1ccn([C@@H]2O[C@H](CO)[C@@H](O)C2(F)F)c(=O)n1 [Gemcitabine] | 0
O=C(O)CNC(=O)c1c(O)c2ccccc2n(Cc2ccccc2)c1=O [IOX-2] | 2.91
CC(=O)[C@]1(O)Cc2c(O)c3c(c(O)c2[C@@H](O[C@H]2C[C@H](N)[C@H](O)[C@H](C)O2)C1)C(=O)c1ccccc1C3=O [Idarubicin] | 0
C/C(=C\c1csc(C)n1)[C@@H]1C[C@@H]2O[C@]2(C)CCC[C@H](C)[C@H](O)[C@@H](C)C(=O)C(C)(C)[C@@H](O)CC(=O)N1 [Ixabepilone] | 5.33
C=CCn1c(=O)c2cnc(Nc3ccc(N4CCN(C)CC4)cc3)nc2n1-c1cccc(C(C)(C)O)n1 [MK1775] | 9.39
CN(Cc1cnc2nc(N)nc(N)c2n1)c1ccc(C(=O)N[C@@H](CCC(=O)O)C(=O)O)cc1 [Methotrexate] | 0
CO[C@@]12[C@H](COC(N)=O)C3=C(C(=O)C(C)=C(N)C3=O)N1C[C@@H]1N[C@@H]12 [Mitomycin C] | 0
CCNC(=O)c1noc(-c2cc(C(C)C)c(O)cc2O)c1-c1ccc(CN2CCOCC2)cc1 [NVP-AUY922] | 0
Cc1cn(-c2cc(NC(=O)c3ccc(C)c(Nc4nccc(-c5cccnc5)n4)c3)cc(C(F)(F)F)c2)cn1 [Nilotinib] | 1.71
CC[C@H](CO)Nc1nc(NCc2ccccc2)c2ncn(C(C)C)c2n1 [Seliciclib] | 0
O=[N+]([O-])c1ccc2c(c1)S(=O)(=O)C=C2 [Stattic] | 19.8
O=C(CCCCCCC(=O)Nc1ccccc1)NO [Vorinostat] | 0.875

These molecules were tested on CAL-148 in the same assay as above. Details: incubation time: 72 h.
How it was run: as §1

SMILES | drug sensitivity score
CNC(=O)c1ccccc1Sc1ccc2c(/C=C/c3ccccn3)n[nH]c2c1 [Axitinib] | 2.44
COc1cc(Nc2c(C#N)cnc3cc(OCCCN4CCN(C)CC4)c(OC)cc23)c(Cl)cc1Cl [Bosutinib] | 2.51
CCN(CC)CCCC(C)Nc1ccnc2cc(Cl)ccc12 (stereo not given) [Chloroquine] | 11.8
CC1(COc2ccc3c(c2)ncn3-c2ccc3cccc(N4CCC(N)CC4)c3n2)COC1 [Crenolanib] | 6.78
CC(C)(C)c1nc(-c2cccc(NS(=O)(=O)c3c(F)cccc3F)c2F)c(-c2ccnc(N)n2)s1 [Dabrafenib] | 1.13
Cc1nc(C(=O)NCC(=O)O)c(O)c2ccc(Oc3ccccc3)cc12 [FG-4592] | 0
CC(C)(C)NC(=O)[C@H]1CC[C@H]2[C@@H]3CC[C@H]4NC(=O)C=C[C@]4(C)[C@H]3CC[C@]12C [Finasteride] | 0
Nc1ccn([C@@H]2O[C@H](CO)[C@@H](O)C2(F)F)c(=O)n1 [Gemcitabine] | 11.2
O=C(O)CNC(=O)c1c(O)c2ccccc2n(Cc2ccccc2)c1=O [IOX-2] | 0
CC(=O)[C@]1(O)Cc2c(O)c3c(c(O)c2[C@@H](O[C@H]2C[C@H](N)[C@H](O)[C@H](C)O2)C1)C(=O)c1ccccc1C3=O [Idarubicin] | 12.7
C/C(=C\c1csc(C)n1)[C@@H]1C[C@@H]2O[C@]2(C)CCC[C@H](C)[C@H](O)[C@@H](C)C(=O)C(C)(C)[C@@H](O)CC(=O)N1 [Ixabepilone] | 0
C=CCn1c(=O)c2cnc(Nc3ccc(N4CCN(C)CC4)cc3)nc2n1-c1cccc(C(C)(C)O)n1 [MK1775] | 21.1
CN(Cc1cnc2nc(N)nc(N)c2n1)c1ccc(C(=O)N[C@@H](CCC(=O)O)C(=O)O)cc1 [Methotrexate] | 0
CO[C@@]12[C@H](COC(N)=O)C3=C(C(=O)C(C)=C(N)C3=O)N1C[C@@H]1N[C@@H]12 [Mitomycin C] | 1.72
CCNC(=O)c1noc(-c2cc(C(C)C)c(O)cc2O)c1-c1ccc(CN2CCOCC2)cc1 [NVP-AUY922] | 12.7
Cc1cn(-c2cc(NC(=O)c3ccc(C)c(Nc4nccc(-c5cccnc5)n4)c3)cc(C(F)(F)F)c2)cn1 [Nilotinib] | 0
CC[C@H](CO)Nc1nc(NCc2ccccc2)c2ncn(C(C)C)c2n1 [Seliciclib] | 0
O=[N+]([O-])c1ccc2c(c1)S(=O)(=O)C=C2 [Stattic] | 9.88
O=C(CCCCCCC(=O)Nc1ccccc1)NO [Vorinostat] | 1.45

Each molecule was assayed on HCC1937 in the same assay as above. Details: incubation time: 72 h.
How it was run: as §1

SMILES | drug sensitivity score
CNC(=O)c1ccccc1Sc1ccc2c(/C=C/c3ccccn3)n[nH]c2c1 [Axitinib] | 0
COc1cc(Nc2c(C#N)cnc3cc(OCCCN4CCN(C)CC4)c(OC)cc23)c(Cl)cc1Cl [Bosutinib] | 1.87
CCN(CC)CCCC(C)Nc1ccnc2cc(Cl)ccc12 (stereo not given) [Chloroquine] | 5.9
CC1(COc2ccc3c(c2)ncn3-c2ccc3cccc(N4CCC(N)CC4)c3n2)COC1 [Crenolanib] | 0
CC(C)(C)c1nc(-c2cccc(NS(=O)(=O)c3c(F)cccc3F)c2F)c(-c2ccnc(N)n2)s1 [Dabrafenib] | 1.11
Cc1nc(C(=O)NCC(=O)O)c(O)c2ccc(Oc3ccccc3)cc12 [FG-4592] | 0
CC(C)(C)NC(=O)[C@H]1CC[C@H]2[C@@H]3CC[C@H]4NC(=O)C=C[C@]4(C)[C@H]3CC[C@]12C [Finasteride] | 0
Nc1ccn([C@@H]2O[C@H](CO)[C@@H](O)C2(F)F)c(=O)n1 [Gemcitabine] | 0
O=C(O)CNC(=O)c1c(O)c2ccccc2n(Cc2ccccc2)c1=O [IOX-2] | 0
CC(=O)[C@]1(O)Cc2c(O)c3c(c(O)c2[C@@H](O[C@H]2C[C@H](N)[C@H](O)[C@H](C)O2)C1)C(=O)c1ccccc1C3=O [Idarubicin] | 0
C/C(=C\c1csc(C)n1)[C@@H]1C[C@@H]2O[C@]2(C)CCC[C@H](C)[C@H](O)[C@@H](C)C(=O)C(C)(C)[C@@H](O)CC(=O)N1 [Ixabepilone] | 0
C=CCn1c(=O)c2cnc(Nc3ccc(N4CCN(C)CC4)cc3)nc2n1-c1cccc(C(C)(C)O)n1 [MK1775] | 0
CN(Cc1cnc2nc(N)nc(N)c2n1)c1ccc(C(=O)N[C@@H](CCC(=O)O)C(=O)O)cc1 [Methotrexate] | 0
CO[C@@]12[C@H](COC(N)=O)C3=C(C(=O)C(C)=C(N)C3=O)N1C[C@@H]1N[C@@H]12 [Mitomycin C] | 0
CCNC(=O)c1noc(-c2cc(C(C)C)c(O)cc2O)c1-c1ccc(CN2CCOCC2)cc1 [NVP-AUY922] | 0.92
Cc1cn(-c2cc(NC(=O)c3ccc(C)c(Nc4nccc(-c5cccnc5)n4)c3)cc(C(F)(F)F)c2)cn1 [Nilotinib] | 0
CC[C@H](CO)Nc1nc(NCc2ccccc2)c2ncn(C(C)C)c2n1 [Seliciclib] | 0
O=[N+]([O-])c1ccc2c(c1)S(=O)(=O)C=C2 [Stattic] | 25
O=C(CCCCCCC(=O)Nc1ccccc1)NO [Vorinostat] | 0

Each molecule was assayed on MDA-MB-436 in the same assay as above. Details: incubation time: 72 h.
How it was run: as §1

SMILES | drug sensitivity score
CNC(=O)c1ccccc1Sc1ccc2c(/C=C/c3ccccn3)n[nH]c2c1 [Axitinib] | 0
COc1cc(Nc2c(C#N)cnc3cc(OCCCN4CCN(C)CC4)c(OC)cc23)c(Cl)cc1Cl [Bosutinib] | 2.19
CCN(CC)CCCC(C)Nc1ccnc2cc(Cl)ccc12 (stereo not given) [Chloroquine] | 8.96
CC1(COc2ccc3c(c2)ncn3-c2ccc3cccc(N4CCC(N)CC4)c3n2)COC1 [Crenolanib] | 18.5
CC(C)(C)c1nc(-c2cccc(NS(=O)(=O)c3c(F)cccc3F)c2F)c(-c2ccnc(N)n2)s1 [Dabrafenib] | 0
Cc1nc(C(=O)NCC(=O)O)c(O)c2ccc(Oc3ccccc3)cc12 [FG-4592] | 0
CC(C)(C)NC(=O)[C@H]1CC[C@H]2[C@@H]3CC[C@H]4NC(=O)C=C[C@]4(C)[C@H]3CC[C@]12C [Finasteride] | 0
Nc1ccn([C@@H]2O[C@H](CO)[C@@H](O)C2(F)F)c(=O)n1 [Gemcitabine] | 0
O=C(O)CNC(=O)c1c(O)c2ccccc2n(Cc2ccccc2)c1=O [IOX-2] | 0
